According to patent US9980927B2, “Use of tapentadol for inhibiting and/or treating depression and anxiety” (Gruenenthal GmbH, priority 2011, dated 2018):

Key:
Type in all cases: in vivo, human patients
[1] = system: patients with inadequately managed, severe chronic low back pain with or without a neuropathic pain component; assay: Clinical global impression of change (CGIC), same trial
From the text: (§1) This was a multicenter, multinational, open-label, effectiveness phase IIIb trial to evaluate effectiveness and safety of tapentadol prolonged release treatment in patients with inadequately managed, severe chronic low back pain with or without a neuropathic pain component. Patients taking WHO Step II analgesics discontinued those analgesics before starting study medication; patients taking Step I analgesics and/or centrally acting co-analgesics continued on the same dose. […] All patients received tapentadol prolonged release (50-250 mg bid) for up to 12 weeks (5-week titration period and a 7-week maintenance period). Tapentadol immediate release (IR) 50 mg (twice a day, hours apart) was permitted (combined total daily dose of tapentadol prolonged release and tapentadol IR, 500 mg/day). The primary efficacy endpoint was the change from Baseline to Week 6 (when tapentadol prolonged release doses were stable) in average pain intensity on the 11-point NRS-3 using the last observation carried forward (LOCF) for imputing missing scores. The painDETECT questionnaire was used to evaluate the likelihood of a neuropathic pain component of low back pain; patients were classified as painDETECT “negative,” “unclear,” or “positive.” The population of patients classified as painDETECT negative was limited to approximately 30% of the total population.
All subjects completed Short Form-36 (SF-36) and EuroQol-5 Dimension (EQ-5D) questionnaires and the Hospital Anxiety and Depression Scale (HADS). The Patient Global Impression of Change (PGIC) and Clinical global impression of change (CGIC) were also used as secondary endpoints. For both tests, patients completed the statement, “since I began trial treatment, I would rate my overall condition as,” using 7 possible responses (“very much worse” to “very much improved”). Adverse events were recorded throughout the trial.

[2] = system: patients with inadequately managed, severe chronic low back pain with or without a neuropathic pain component; assay: Subject satisfaction with previous/new treatment, same trial; conditions: 0.0% at Baseline
From the text: as §1

[3] = system: patients with inadequately managed, severe chronic low back pain with or without a neuropathic pain component; assay: EuroQol-5 Dimension (EQ-5D) health status index score, same trial; conditions: Baseline to Week 12
From the text: This was a multicenter, multinational, open-label, effectiveness phase IIIb trial to evaluate effectiveness and safety of tapentadol prolonged release treatment in patients with inadequately managed, severe chronic low back pain with or without a neuropathic pain component. Patients taking WHO Step II analgesics discontinued those analgesics before starting study medication; patients taking Step I analgesics and/or centrally acting co-analgesics continued on the same dose. […] All patients received tapentadol prolonged release (50-250 mg bid) for up to 12 weeks (5-week titration period and a 7-week maintenance period). Tapentadol immediate release (IR) 50 mg (twice a day, hours apart) was permitted (combined total daily dose of tapentadol prolonged release and tapentadol IR, 500 mg/day). The primary efficacy endpoint was the change from Baseline to Week 6 (when tapentadol prolonged release doses were stable) in average pain intensity on the 11-point NRS-3 using the last observation carried forward (LOCF) for imputing missing scores. […]
All subjects completed Short Form-36 (SF-36) and EuroQol-5 Dimension (EQ-5D) questionnaires and the Hospital Anxiety and Depression Scale (HADS). […] Adverse events were recorded throughout the trial.

**Q.** How did the “percentage of patients reporting “very much improved” or “much improved” on the CGIC” value (shortened to “percentage … on the CGIC”) ([1]; Week 1 (26/172)) turn out when `CC[C@@H](c1cccc(O)c1)[C@@H](C)CN(C)C` [tapentadol, (−)-(1R,2R)-3-(3-dimethylamino-1-ethyl-2-methyl-propyl)-phenol] was run?
**A.** 15.1%

**Q.** What about the “percentage … on the CGIC” value ([1]; Week 6 (70/138)) of the same molecule?
**A.** 50.7%

**Q.** And the “percentage … on the CGIC” value ([1]; Week 12 (62/91))?
**A.** 68.2%

**Q.** And the “percentage of patients rating satisfaction with treatment “excellent” or “very good”” value ([2]; Week 6 (41/138))?
**A.** 29.7%

**Q.** What about the “percentage of patients rating satisfaction with treatment “excellent” or “very good”” value ([2]; Week 12 (48/91)) of the same molecule?
**A.** 52.8%

**Q.** And the “mean (SD) change in the EQ-5D health status index score” value ([3]; patients painDETECT negative, P=0.0022)?
**A.** 0.18

**Q.** And the “mean (SD) change in the EQ-5D health status index score” value ([3]; patients painDETECT positive, P<0.0001)?
**A.** 0.36 (0.32)
